Inhibition data for 1 molecule are collected here from publication PMC6934184, “Selective DNA-PKcs inhibition extends the therapeutic index of localized radiotherapy and chemotherapy” (The Journal of Clinical Investigation, 2019).

The target in this test is T1, DYRK3 (Homo sapiens, UniProt O43781).
T1 construct: purchased Thermo Fisher Scientific (Life Technologies) SelectScreen
The test is described as follows: SelectScreen Z'LYTE. The format is biochemical. Summed up:
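SelectScreen broad panel; activity (Z'LYTE, Adapta) plus binding formats. ATP: Km app for CSF1R Z'LYTE; 10 for CAMK1 Adapta. Readout = % per kinase.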

T1 sequence (O43781 whole entry): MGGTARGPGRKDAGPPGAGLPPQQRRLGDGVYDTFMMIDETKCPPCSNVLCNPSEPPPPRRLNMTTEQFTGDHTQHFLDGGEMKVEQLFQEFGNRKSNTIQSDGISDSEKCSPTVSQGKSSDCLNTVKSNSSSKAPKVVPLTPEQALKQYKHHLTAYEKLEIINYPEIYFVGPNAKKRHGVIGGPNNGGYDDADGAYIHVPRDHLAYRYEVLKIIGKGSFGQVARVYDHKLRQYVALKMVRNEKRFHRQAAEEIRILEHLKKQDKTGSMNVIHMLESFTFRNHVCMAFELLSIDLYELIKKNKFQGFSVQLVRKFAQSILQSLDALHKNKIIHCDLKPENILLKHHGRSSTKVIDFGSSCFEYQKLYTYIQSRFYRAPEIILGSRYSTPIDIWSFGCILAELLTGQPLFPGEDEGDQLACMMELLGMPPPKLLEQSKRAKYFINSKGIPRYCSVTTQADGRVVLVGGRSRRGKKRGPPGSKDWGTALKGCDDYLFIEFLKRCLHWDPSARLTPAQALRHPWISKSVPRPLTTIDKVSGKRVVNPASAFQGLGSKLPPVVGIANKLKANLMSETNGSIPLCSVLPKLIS

The inhibition is the drop in the measured response relative to a control, in per cent. The molecule `CN(C(=O)CN1CCOCC1)c1ccc2sc3c(-c4cccc5c(=O)cc(N6CC7CCC(C6)O7)oc45)cccc3c2c1` [NU5455] came in with an inhibition at 1 µM of 2.6%.
